Source: article PMC4304192, “KUD773, a phenylthiazole derivative, displays anticancer activity in human hormone-refractory prostate cancers through inhibition of tubulin polymerization and anti-Aurora A activity” (Journal of Biomedical Science, 2015)

Target: T1, Aurora A kinase (Homo sapiens, UniProt O14965)
T1 construct: gene AURKA
T1 sequence (O14965 1-403): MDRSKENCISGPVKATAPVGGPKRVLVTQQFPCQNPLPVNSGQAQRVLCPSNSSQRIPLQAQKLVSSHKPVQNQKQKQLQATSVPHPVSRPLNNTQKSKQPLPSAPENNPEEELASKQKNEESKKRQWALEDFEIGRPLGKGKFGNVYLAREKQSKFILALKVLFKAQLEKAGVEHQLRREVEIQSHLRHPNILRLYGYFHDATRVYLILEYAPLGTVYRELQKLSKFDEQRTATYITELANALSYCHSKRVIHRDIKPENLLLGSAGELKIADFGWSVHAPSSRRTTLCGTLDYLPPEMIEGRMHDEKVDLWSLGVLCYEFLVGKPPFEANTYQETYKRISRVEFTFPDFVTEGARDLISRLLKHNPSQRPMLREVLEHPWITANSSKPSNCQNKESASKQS
Experiment: Aurora A luminescent kinase assay (Kinase-Glo Plus, […] ATP, LRRWSLG peptide substrate)
Format: biochemical

With `FC(F)(F)c1cccc(-c2csc(-n3ccnc3)n2)c1` [KUD773, 2-(1H-imidazol-1-yl)-4-(3-(trifluoromethyl)phenyl)thiazole] the IC50 was 30 µM.
